Test results: US20250241926A1, “HETEROCYCLIC COMPOUNDS FOR USE IN THE TREATMENT OF CANCER” (ARTIOS PHARMA LIMITED, priority 2021, published 2025)
Like-named read-outs stand apart in the source and are kept apart here.

Target: T1, Human Polθ polymerase domain (aa1820-2590) (Homo sapiens, UniProt O75417)
T1 construct: Human Polθ polymerase domain (aa1820-2590) was expressed in E. Coli; made in house; host or cells: E. coli
T1 sequence (O75417 1820-2590): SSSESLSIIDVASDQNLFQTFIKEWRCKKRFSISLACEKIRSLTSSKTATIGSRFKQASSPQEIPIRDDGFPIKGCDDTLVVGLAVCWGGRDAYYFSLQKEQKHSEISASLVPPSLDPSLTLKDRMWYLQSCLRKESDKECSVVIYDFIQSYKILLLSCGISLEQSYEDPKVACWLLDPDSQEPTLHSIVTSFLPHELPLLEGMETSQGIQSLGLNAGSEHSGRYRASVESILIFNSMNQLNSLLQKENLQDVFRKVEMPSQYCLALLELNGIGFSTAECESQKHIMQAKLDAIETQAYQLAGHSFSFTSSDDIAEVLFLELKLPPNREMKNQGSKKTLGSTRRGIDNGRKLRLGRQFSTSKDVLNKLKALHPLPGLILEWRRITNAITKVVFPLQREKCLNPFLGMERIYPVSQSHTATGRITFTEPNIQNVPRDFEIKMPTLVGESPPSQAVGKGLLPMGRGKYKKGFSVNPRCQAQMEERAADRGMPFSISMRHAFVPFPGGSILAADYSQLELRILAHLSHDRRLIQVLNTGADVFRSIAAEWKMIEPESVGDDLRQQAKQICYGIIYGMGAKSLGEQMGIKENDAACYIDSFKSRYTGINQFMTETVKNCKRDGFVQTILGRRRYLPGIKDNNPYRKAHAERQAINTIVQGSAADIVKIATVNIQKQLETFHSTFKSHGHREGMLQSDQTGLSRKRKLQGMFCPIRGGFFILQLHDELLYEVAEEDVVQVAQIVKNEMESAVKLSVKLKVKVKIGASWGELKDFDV
Assay: Polθ Polymerase Domain Kinact/Kl Assay (PicoGreen)
Type: biochemical
Details: covalent inhibitors, kobs vs [I] fit, 0.8 nM Polθ, 100 nM DNA substrate
Description: Polθ Polymerase Domain Kinact/Kl Assay
A PicoGreen assay was used to measure the Kinact and Kl values of covalent compounds that inhibit the activity of Polθ in vitro.
Human Polθ polymerase domain (aa1820-2590) was expressed in E. Coli, purified, aliquoted and stored at −80° C. until required. Polθ substrate was generated from a 1.2:1 mix of DNA II Short to DNA II Long to give a final concentration of […] substrate in annealing buffer (20 mM Tris pH 7.5, 50 mM NaCl). The substrate was heated in 50 mL aliquots to 95° C. in a heating block for 5 min before the heating block switched off, the reaction left to cool to rt and stored at −20° C. until required.
Assay measurements were performed with 1× buffer comprising 25 mM Tris pH 7.5, 12.5 mM NaCl, […], 5% (v/v) glycerol, 0.01% v/v Triton x-100, 0.1 mg/ml BSA, 1 mM DTT. Test compounds were prepared by dilution in 100% DMSO to give a 12 μM intermediate stock of each (100× final top concentration). 100 nL of 23× 1:1.5-fold serial dilutions and a DMSO only control were dispensed using the Tecan dispenser into Greiner 384 well black low volume plates (product code 784076). DMSO concentration was maintained at 1% of the final assay volume by back filling with DMSO.
2× Working stock of substrate (200 nM of DNA substrate and […] dNTPs) and enzyme (1.4 nM Polθ) were made up in assay buffer. 5 μL/well of both enzyme and substrate 2× solutions were dispensed using a Tempest dispenser (Formulatrix) into assay plates that had been pre-dispensed with compound to give a final assay concentration of 100 nM DNA substrate, […] dNTPs and 0.8 nM Polθ. To stop the reaction, […] of a solution containing 25 mM Tris-HCl pH 7.5 and 20 mM EDTA was added at […] (t=0, 2.5, 5, 7.5, 10, 12.5, 15, 20, 25, 30, 35, 40, 45, 50, 55 and 60 min) using the Tempest's time delay function. The plates were covered during the time course to prevent evaporation. After completing the assay, 5 μL of detection reagent (25 mM Tris-HCl pH 7.5 and 2.5% (v/v) PicoGreen) was dispensed into the wells using a Tempest liquid handler (Formulatrix) and plates subsequently read on the CLARIOstar Plus (BMG Labtech) using the default optical settings for fluorescein and the auto gain/focus settings.
All data analysis was carried out using GraphPad Prism V. 8 (GraphPad Software Inc, San Diego, CA) Time course data for each inhibitor concentration was fitted to equation 1 to determine kobs values.^1 Any time points where the control (DMSO alone) reaction was no longer linear were excluded from the analysis.
A secondary plot of kobs vs [I] is used to determine the Kinact and Kl parameters (for a 2-step covalent inhibitor) by fitting to equation 2.1
[formula] • 1) Evaluation of Enzyme Inhibitors in Drug Discovery (Ch9), R. A Copeland, Wiley, 2nd Edition 2013.

Compound | kinact/KI (read-out: Kinact/KI) [M⁻¹ s⁻¹] | kinact/KI [M⁻¹ s⁻¹]
Cc1cc(C(F)(F)F)c(C#N)c(N[C@H]2CCN(CCN(C)C(=O)[C@@H]3CCN(C(=O)/C=C/CN(C)C)C3)c3ccccc3N(C)C2=O)n1 [Example 30, (R)—N-(2-((S)-4-((3-Cyano-6-methyl-4-(trifluoromethyl)pyridin-2-yl)amino)-6-methyl-5-oxo-3,4,5,6-tetrahydrobenzo[b][1,4]diazocin-1(2H)-yl)ethyl)-1-((E)-4-(dimethylamino)but-2-enoyl)-N-methylpyrrolidine-3-carboxamide] | 690000 | 
C=CC(=O)N1CC2(CN(CCN3CC[C@H](Nc4nc(C)cc(C(F)(F)F)c4C#N)C(=O)N(C)c4ccccc43)CCO2)C1 [Example 21, (S)-2-((6-(2-(2-Acryloyl-5-oxa-2,8-diazaspiro[3.5]nonan-8-yl)ethyl)-1-meth-yl-2-oxo-1,2,3,4,5,6-hexa-hydrobenzo[b][1,4]diazocin-3-yl)amino)-6-methyl-4-(trifluorometh-yl)nicotinonitrile] | 1.2e+06 | 
C=CC(=O)N1CC(N2CCN(CCN3CC[C@H](Nc4nc(C)cc(C(F)(F)F)c4C#N)C(=O)N(C)c4ccccc43)CC2)C1 [Example 20, (S)-2-((6-(2-(4-(1-Acrylo-ylazetidin-3-yl)piperazin-1-yl)ethyl)-1-methyl-2-oxo-1,2,3,4,5,6-hexa-hydrobenzo[b][1,4]diazocin-3-yl)amino)-6-methyl-4-(trifluorometh-yl)nicotinonitrile] | 500000 | 
C=CC(=O)N1CC(N2CCN(CCN3CC[C@H](Nc4nc(C)cc(C(F)(F)F)c4C#N)C(=O)N(C)c4cccc(F)c43)C[C@H]2C)C1 [Example 16, 2-(((S)-6-(2-((R)-4-(1-Acryloylazetidin-3-yl)-3-methylpiperazin-1-yl)-ethyl)-7-fluoro-1-methyl-2-oxo-1,2,3,4,5,6-hexa-hydrobenzo[b][1,4]diazocin-3-yl)amino)-6-methyl-4-(trifluorometh-yl)nicotinonitrile] | 540000 | 
CO[C@H]1CN(C(=O)/C=C/CN(C)C)C[C@@H]1C(=O)N(C)CCN1CC[C@H](Nc2nc(C)cc(C(F)(F)F)c2C#N)C(=O)N(C)c2cccc(F)c21 (relative stereo) [Example 28, (rel-3S,4R)—N-(2-((S)-4-((3-Cyano-6-methyl-4-(trifluoromethyl)pyridin-2-yl)amino)-10-fluoro-6-methyl-5-oxo-3,4,5,6-tetrahydrobenzo[b][1,4]diazocin-1(2H)-yl)ethyl)-1-((E)-4-(dimethylamino)but-2-enoyl)-4-methoxy-N-methylpyrrolidine-3-carboxamide] | 560000 | 
C=CC(=O)N1CC2(CN(CCN3CC[C@H](Nc4nc(C)cc(C(F)(F)F)c4C#N)C(=O)N(C)c4ccccc43)C2)C1 [Example 22, (S)-2-((6-(2-(6-Acryloyl-2,6-diazaspiro[3.3]heptan-2-yl)ethyl)-1-methyl-2-oxo-1,2,3,4,5,6-hexa-hydrobenzo[b][1,4]diazocin-3-yl)amino)-6-methyl-4-(trifluorometh-yl)nicotinonitrile] | 500000 | 
C#CCN1CCN(CCN2CC[C@H](Nc3nc(C)cc(C(F)(F)F)c3C#N)C(=O)N(C)c3cccc(F)c32)CC12CN(C(=O)C=C)C2 [Example 25, (S)-2-((6-(2-(2-Acryloyl-5-(prop-2-yn-1-yl)-2,5,8-triazaspiro[3.5]nonan-8-yl)ethyl)-7-fluoro-1-methyl-2-oxo-1,2,3,4,5,6-hexahydrobenzo[b][1,4]diazocin-3-yl)amino)-6-methyl-4-(trifluoromethyl)nicotinonitrile] | 1.6e+06 | 

The next lines start with the values.

kinact/KI (read-out: Kinact/KI) [M⁻¹ s⁻¹] | kinact/KI [M⁻¹ s⁻¹] | Compound
 | 60000 | C=CC(=O)N1CC(N2CC(=O)N(C)C(CN3CC[C@H](Nc4nc(C)cc(C(F)(F)F)c4C#N)C(=O)N(C)c4cccc(F)c43)C2)C1 (mixture of isomers) [Example 58A, 2-(((S)-6-(((S/R)-4-(1-Acryloylazetidin-3-yl)-1-methyl-6-oxopiperazin-2-yl)methyl)-7-fluoro-1-methyl-2-oxo-1,2,3,4,5,6-hexahydrobenzo[b][1,4]diazocin-3-yl)amino)-6-methyl-4-(trifluoromethyl)nicotinonitrile]
 | 500000 | (S)-2-((6-(2-(4-(1-Acrylo- ylazetidin-3-yl)piperazin- 1-yl)ethyl)-7-fluoro-1- methyl-2-oxo-1,2,3,4,5,6- hexahydrobenzo[b][1,4] diazocin-3-yl)amino)-6- methyl-4-(trifluorometh- yl)nicotinonitrile [Example 11]
810000 |  | Cc1cc(C(F)(F)F)c(C#N)c(N[C@H]2CCN(CCCOC3CN(C(=O)/C=C/[C@H]4CCCN4C)C3)c3c(F)cccc3N(C)C2=O)n1 [Example 55, 2-(((S)-7-Fluoro-1-methyl-6-(3-((1-((E)-3-((R)-1-methylpyrrolidin-2-yl)acryloyl)azetidin-3-yl)oxy)propyl)-2-oxo-1,2,3,4,5,6-hexahydrobenzo[b][1,4]diazocin-3-yl)amino)-6-methyl-4-(trifluoromethyl)nicotinonitrile]
860000 |  | C=CC(=O)N1CC2(CN(CCN3CC[C@H](Nc4nc(C)cc(C(F)(F)F)c4C#N)C(=O)N(C)c4cccc(F)c43)C[C@@H](C)N2)C1 [Example 63, 2-(((S)-6-(2-((R)-2-Acryloyl-6-methyl-2,5,8-triazaspiro[3.5]nonan-8-yl)ethyl)-7-fluoro-1-methyl-2-oxo-1,2,3,4,5,6-hexahydrobenzo[b][1,4]diazocin-3-yl)amino)-6-methyl-4-(trifluoromethyl)nicotinonitrile]
 | 190000 | Cc1cc(C(F)(F)F)c(C#N)c(N[C@H]2CCN(CC(O)CN3CCN(C(=O)/C=C/CN(C)C)CC3)c3cc(F)ccc3N(C)C2=O)n1 (mixture of isomers) [Example 34A, 2-(((S)-6-((S/R)-3-(4-((E)-4-(Dimethylamino)but-2-enoyl)piperazin-1-yl)-2-hydroxypropyl)-8-fluoro-1-methyl-2-oxo-1,2,3,4,5,6-hexahydrobenzo[b][1,4]diazocin-3-yl)amino)-6-methyl-4-(trifluoromethyl)nicotinonitrile]
920000 |  | Cc1cc(C(F)(F)F)c(C#N)c(N[C@H]2CCN(CCN(C)C(=O)C3CN(C(=O)/C=C/CN(C)C)C3)c3ccccc3N(C)C2=O)n1 [Example 31, (S,E)-N-(2-(4-((3-Cyano-6-methyl-4-(trifluoromethyl)pyridin-2-yl)amino)-6-methyl-5-oxo-3,4,5,6-tetrahydrobenzo[b][1,4]diazocin-1(2H)-yl)ethyl)-1-(4-(dimethylamino)but-2-enoyl)-N-methylazetidine-3-carboxamide]
